The source of these data is patent US11279703B2, “Fused pyrimidine compounds as BRD4 and JAK2 dual inhibitors and methods for use thereof” (APTOSE BIOSCIENCES INC., priority 2016, dated 2022).

Broadly, the IC50 is the concentration that inhibits the measured activity by half.

Test [1] concerns the target BRD4-BD1 (Homo sapiens (Human), UniProt O60885). The experiment in a line: AlphaLisa bromodomain binding assay, BRD4-BD1. The settings on record: Table 6; read-out: BRD4(1) IC50. On the technique in general: In Alpha technology, singlet oxygen from a donor bead excites a nearby acceptor bead.
In test [2] the target is JAK2 (Homo sapiens (Human), UniProt O60674). The experiment in a line: HTRF kinase assay, JAK2. Type of test: biochemical. The settings on record: Table 6. The source says:
A kinase assay with HTRF was used to observe JAK activity and calculate the IC50s of compounds disclosed herein. HTRF is an enzymatic assay used to determine the amount of phosphorylated peptide. FRET (Fluorescence Resonance Energy Transfer) is based on the transfer of energy between two fluorophores—a donor and an acceptor—when in close proximity. Molecular interactions between biomolecules can be assessed by coupling each partner with a fluorescent label and by detecting the level of energy transfer. The amount of phopshorylated peptide can be detected using a combination of a Eu 3+Cryptate labeled anti-phospho residue antibody, SA-XL665 and a biotinylated substrate. The signal is proportional to the concentration of phospho-residues.
Equipment Required • 1. […] Plate centrifuge • 3. Plate shaker • 4. […] Single channel and multi-channel pipettes • 6. Microplate reader (Pherastar)]
Stock and Final Assay Concentrations (FAC) • 1. All reference and test compounds are made at a concentration of 10 mM in DMSO. Compounds are serially diluted in DMSO and a FAC starting from 10 μM to 10 point 3 fold serial dilutions is arrived. For Ruxolitinib the starting FAC is 1 μM. FAC of DMSO is 1%. • 2. Enzyme stock and FAC
• JAK-1: Invtirogen Cat: PR8767C • JAK-2: Invtirogen Cat: PR7820B • JAK-3: Invtirogen Cat: PR7507B • 3. Substrate (synthetic peptide-Biotinylated-N-terminal tag-[…] from Biopeptide) stock and FAC
• Adenosine 5′-triphosphate disodium salt hydrate: Sigma Cat: A26209 • 5. […] Buffers • Base buffer (for 50 ml)
• HTRF buffer: • 50 mM Tris-HCl, pH—7.5 • 100 mM NaCl • 0.1% BSA • 0.05% Tween20 • 0.5 mM EDTA
To a 384 well black-plate: • 1. Add 17 μL of the buffer to each well of the 384-well black plate • 2. […] Add 5 μl of the enzyme to each well of the plate • 4. Add 10 μl of the substrate and ATP mix to all the wells • 5. Cover with plate sealer • 6. […] Incubate at room temperature for 1 hour on shaker • 8. […] Add 37.5 μL of the HTRF mix to these wells. • 9. Incubate the plate at room temperature on shaker for 45 minutes. • 10.
The percent inhibition is calculated in the excel analysis template and the IC50 values are subsequently determined using a sigmoidal dose-response curve (variable slope) using GraphPad Prism® 5 software.
In general terms: Time-resolved FRET reads energy transfer from a long-lived donor to a nearby acceptor.

Sequence of JAK2 (O60674 whole entry): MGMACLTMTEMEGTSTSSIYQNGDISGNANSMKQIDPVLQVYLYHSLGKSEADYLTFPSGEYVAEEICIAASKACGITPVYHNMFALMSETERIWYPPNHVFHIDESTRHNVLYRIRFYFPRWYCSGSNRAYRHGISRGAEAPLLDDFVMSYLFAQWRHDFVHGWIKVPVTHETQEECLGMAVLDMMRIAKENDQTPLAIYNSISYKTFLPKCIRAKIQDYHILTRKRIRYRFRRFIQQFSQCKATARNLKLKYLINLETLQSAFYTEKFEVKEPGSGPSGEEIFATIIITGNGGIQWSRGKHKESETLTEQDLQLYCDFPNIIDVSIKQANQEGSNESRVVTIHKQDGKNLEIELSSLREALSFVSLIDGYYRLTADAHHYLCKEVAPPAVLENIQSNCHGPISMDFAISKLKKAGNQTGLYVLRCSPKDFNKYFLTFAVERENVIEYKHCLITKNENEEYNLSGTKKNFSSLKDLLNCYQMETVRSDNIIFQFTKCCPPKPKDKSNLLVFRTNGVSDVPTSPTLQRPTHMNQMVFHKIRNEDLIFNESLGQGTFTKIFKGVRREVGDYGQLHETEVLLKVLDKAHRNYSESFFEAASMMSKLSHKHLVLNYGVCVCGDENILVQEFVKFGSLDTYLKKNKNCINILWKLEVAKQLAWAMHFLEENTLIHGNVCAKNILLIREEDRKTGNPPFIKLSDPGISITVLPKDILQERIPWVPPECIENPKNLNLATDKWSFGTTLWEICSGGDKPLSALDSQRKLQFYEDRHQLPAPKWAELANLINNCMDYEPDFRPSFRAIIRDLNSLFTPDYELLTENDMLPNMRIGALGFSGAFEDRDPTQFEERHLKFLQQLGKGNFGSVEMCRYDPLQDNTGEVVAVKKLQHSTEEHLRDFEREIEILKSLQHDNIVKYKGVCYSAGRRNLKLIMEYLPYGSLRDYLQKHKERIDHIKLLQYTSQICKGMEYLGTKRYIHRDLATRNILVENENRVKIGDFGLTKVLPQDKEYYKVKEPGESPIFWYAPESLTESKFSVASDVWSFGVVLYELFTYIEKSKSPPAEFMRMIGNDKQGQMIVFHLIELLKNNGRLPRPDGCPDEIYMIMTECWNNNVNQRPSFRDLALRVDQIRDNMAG

Regarding `CN1CCN2c3c(F)cc(Nc4ncc5ccn(-c6cccc(NS(=O)(=O)C(C)(C)C)c6)c5n4)cc3CC2C1` (stereo not shown), the half-maximal inhibitory concentration (IC50) in test [1] came out at 571 nM; in test [2] it was 14 nM.
On the same counts, the results for `CN(C)C1CCN(Cc2ccc(Nc3ncc4ccn(-c5ccc(F)c(NS(=O)(=O)C(C)(C)C)c5)c4n3)cc2F)CC1` are 105 nM and 265 nM.
In the case of `Cc1cnc(Nc2ccc(N3CCN(C)CC3)cc2)nc1Nc1cccc(NS(=O)(=O)C(C)(C)C)c1` [drawing 384], the IC50 in test [1] came out at 138 nM; in test [2] it was 10 nM.
Taken in the same sequence, the figures for `CN(C)C1CCN(c2ccc(Nc3ncc4scc(-c5cccc(NS(=O)(=O)C(C)(C)C)c5)c4n3)cc2F)CC1` were 297 nM and 4 nM.
Take `CC(C)(C)S(=O)(=O)Nc1cccc(-n2ccc3cnc(Nc4ccc(CC(=O)NCCN)cc4)nc32)c1`: the IC50 was determined as 406 nM in test [1] and 64 nM in test [2].
Taken in the same sequence, the figures for `CN1CCN(c2ccc(Nc3ncc4ccn(-c5cccc(NC(=O)C(C)(C)C)c5)c4n3)cc2)CC1` were 10000 nM and 54 nM.
Consider `CNCCNC(=O)Cc1ccc(Nc2ncc3ccn(-c4ccc(F)c(NS(=O)(=O)C(C)(C)C)c4)c3n2)cc1F`, for which the IC50 in test [1] amounted to 142 nM; in test [2], 251 nM.
On the same counts, the results for `CN1CCC(Nc2nc(Nc3ccc4c(c3)N(S(=O)(=O)C(C)(C)C)CC4)c3ccsc3n2)CC1` [drawing 407] are 315 nM and 10000 nM.
On the same counts, the results for `CC(C)(C)S(=O)(=O)Nc1cc(-n2ccc3cnc(Nc4ccc(C5CCNCC5)cc4)nc32)ccc1F` are 475 nM and 1600 nM.
Taken in the same sequence, the figures for `COc1cc(Nc2ncc3ccn(-c4cccc(NS(=O)(=O)C5CC5)c4)c3n2)ccc1N1CCN(C)CC1` were 1810 nM and 15 nM.
Turning to `CC(C)(C)S(=O)(=O)Nc1cccc(-n2ccc3cnc(NC4CCNCC4)nc32)c1`, the IC50 in test [1] and in test [2] was 10000 nM in each case.
Take `CC(C)(C)S(=O)(=O)Nc1cc(Nc2nc(NC3CCNCC3)nc3ccsc23)ccc1Cl`: the figures for the IC50 in test [1] and in test [2] were 3270 nM and 10000 nM, respectively.
On the same counts, the results for `CNCC1CCN(c2ccc(Nc3ncc4ccn(-c5cccc(NS(=O)(=O)C(C)(C)C)c5)c4n3)cc2F)CC1` are 220 nM and 7 nM.
Consider `CN1CCN(c2ccc(Nc3ncc4ccn(-c5cccc(NS(=O)(=O)C6CC6)c5)c4n3)cc2)CC1` [drawing 356], for which the results for the IC50 in test [1] and in test [2] were 1800 nM and 8 nM, respectively.
On the same counts, the results for `CN(C)C1CCN(c2ccc(Nc3ncc4ccn(-c5cccc(NS(=O)(=O)C(C)(C)C)c5)c4n3)cc2F)CC1` [drawing 371] are 131 nM and 3 nM.
On the same counts, the results for `COc1cc(N2CCN(C)CC2)ccc1Nc1ncc2ccn(-c3cccc(NS(=O)(=O)C(C)(C)C)c3)c2n1` are 1600 nM and 2800 nM.
Taken in the same sequence, the figures for `CN1CCN(c2ccc(Nc3nc(Nc4ccc(Cl)c(NS(=O)(=O)C(C)(C)C)c4)c4sccc4n3)cc2)CC1` were 2680 nM and 10000 nM.
For the molecule `CN1CCN(c2ccc(Nc3ncc4scc(-c5ccc(F)c(NS(=O)(=O)C(C)(C)C)c5)c4n3)cc2F)CC1`, the IC50 was 228 nM in test [1] and 36 nM in test [2].
On the same counts, the results for `CNCC1CCN(c2ccc(Nc3ncc4c(n3)N(c3cccc(NS(=O)(=O)C(C)(C)C)c3)CC4)cc2F)CC1` are 580 nM and 9 nM.
Taken in the same sequence, the figures for `Cc1cc(Nc2ncc3ccn(-c4cccc(NS(=O)(=O)C(C)(C)C)c4)c3n2)ccc1N1CCN(C)CC1` were 722 nM and 11 nM.
Taken in the same sequence, the figures for `CN1CCN(c2ccc(Nc3ncc4ccn(-c5cccc(NS(=O)(=O)C(C)(C)C)c5)c4n3)cc2C(N)=O)CC1` were 577 nM and 72 nM.
Take `Cc1cnc(Nc2ccc(N3CCN(C)CC3)cc2)nc1Nc1cccc(NS(=O)(=O)C(C)(C)C)c1` [drawing 405]: the values for the IC50 in test [1] and in test [2] were 208 nM and 14 nM, respectively.
Taken in the same sequence, the figures for `CC(C)(C)S(=O)(=O)Nc1cccc(-n2ccc3cnc(Nc4ccc(N5CCOCC5)cc4)nc32)c1` were 5530 nM and 24.4 nM.
Take `COc1cc(Nc2ncc3scc(-c4cccc(NS(=O)(=O)C(C)(C)C)c4)c3n2)ccc1N1CCC(N(C)C)CC1`: the values for the concentration for half-maximal inhibition (IC50) in test [1] and in test [2] were 560 nM and 1 nM, respectively.
As to `CN1CCC(c2ccc(Nc3ncc4ccn(-c5cccc(NS(=O)(=O)C6CC6)c5)c4n3)cc2)CC1`, the IC50 in test [1] was determined as 2720 nM; in test [2], 51 nM.
On the same counts, the results for `CN1CCC(NC(=O)c2ccc(Nc3ncc4ccn(-c5ccc(F)c(NS(=O)(=O)C6CC6)c5)c4n3)cc2)CC1` are 1130 nM and 152 nM.
On the same counts, the results for `CC(C)(C)S(=O)(=O)Nc1cccc(Nc2nc(NC3CCN(c4ccccc4)CC3)nc3sccc23)c1` are 10000 nM and 10000 nM.
Taken in the same sequence, the figures for `CNCCNc1ccc(Nc2ncc3ccn(-c4cccc(NS(=O)(=O)C(C)(C)C)c4)c3n2)cc1` were 407 nM and 24 nM.
For the molecule `CNC1CCN(c2ccc(Nc3ncc4scc(-c5ccc(F)c(NS(=O)(=O)C(C)(C)C)c5)c4n3)cc2F)CC1` [drawing 459], the values for the IC50 in test [1] and in test [2] were 308 nM and 21 nM, respectively.
On the same counts, the results for `CC(C)(C)S(=O)(=O)Nc1cc(-n2ccc3cnc(Nc4ccc(N5CCNCC5)c(F)c4)nc32)ccc1F` [drawing 430] are 125 nM and 76 nM.
Taken in the same sequence, the figures for `O=S(=O)(Nc1cccc(-n2ccc3cnc(Nc4ccc(N5CCNCC5)cc4)nc32)c1)C1CC1` [drawing 320] were 451 nM and 6 nM.
Consider `CN1CCC(NC(=O)c2ccc(Nc3ncc4ccn(-c5ccc(F)c(NS(=O)(=O)C(C)(C)C)c5)c4n3)cc2)CC1`, for which the figures for the 50% inhibitory concentration (IC50) in test [1] and in test [2] were 372 nM and 177 nM, respectively.
On the same counts, the results for `CN1CCN(c2ccc(Nc3ncc4ccn(-c5ccc(Cl)c(NS(=O)(=O)C(C)(C)C)c5)c4n3)cc2)CC1` are 481 nM and 165 nM.
Taken in the same sequence, the figures for `Cc1cnc(Nc2ccc(N3CCN(C)CC3)cc2)nc1Nc1cccc(NS(=O)(=O)C(C)(C)C)c1` [drawing 196] were 180 nM and 10 nM.
Taken in the same sequence, the figures for `CN(C)C1CCN(c2ccc(Nc3ncc4ccn(-c5cccc(NS(=O)(=O)C(C)(C)C)c5)c4n3)cc2)CC1` [drawing 409] were 229 nM and 6.5 nM.
In the case of `CN1CCN(c2ccc(Nc3ccc4ccn(-c5cccc(NS(=O)(=O)C(C)(C)C)c5)c4n3)cc2)CC1`, the half-maximal inhibitory concentration (IC50) in test [1] and in test [2] was 10000 nM throughout.
As to `CN(C)C1CCN(c2ccc(Nc3ncc4scc(-c5cccc(NS(=O)(=O)C(C)(C)C)c5)c4n3)cc2)CC1`, the IC50 was 368 nM in test [1] and 3 nM in test [2].
As to `CN1CCN(c2ccc(Nc3ncc4ccn(-c5cccc(NS(=O)(=O)C(C)(C)C)c5)c4n3)cc2Cl)CC1`, the IC50 in test [1] was 1130 nM; in test [2] it was 8 nM.
For `CN1CCN(c2ccc(Nc3ncc4ccn(-c5ccc(C#N)c(NS(=O)(=O)C6CC6)c5)c4n3)cc2)CC1`, the IC50 in test [1] was 1800 nM; in test [2], 78 nM.
On the same counts, the results for `CC(C)(C)S(=O)(=O)Nc1cc(-n2ccc3cnc(Nc4ccc(N5CCNC(=O)C5)c(F)c4)nc32)ccc1F` are 295 nM and 142 nM.
Taken in the same sequence, the figures for `COc1cc(Nc2ncc3scc(-c4cccc(NS(=O)(=O)C(C)(C)C)c4)c3n2)ccc1N1CCNCC1` were 356 nM and 4 nM.
On the same counts, the results for `CN1CCN2c3ccc(Nc4ncc5scc(-c6cccc(NS(=O)(=O)C(C)(C)C)c6)c5n4)cc3CC2C1` (stereo not shown) are 607 nM and 2 nM.
As for `O=S(=O)(Nc1cccc(-n2ccc3cnc(Nc4ccc(N5CCNCC5)cc4)nc32)c1)C1CC1` [drawing 307], the values for the IC50 in test [1] and in test [2] were 1350 nM and 5 nM, respectively.
Taken in the same sequence, the figures for `Cc1noc(C)c1-c1cccc(-n2ccc3cnc(Nc4ccc(N5CCN(C)CC5)cc4)nc32)c1` [drawing 285] were 2330 nM and 3 nM.
Taken in the same sequence, the figures for `CC(C)(C)S(=O)(=O)Nc1cccc(-c2csc3cnc(Nc4cc(F)c5c(c4)CC4CNCCN54)nc23)c1` (stereo not shown) were 766 nM and 5 nM.
On the same counts, the results for `CC(C)(C)S(=O)(=O)Nc1cccc(-c2csc3cnc(Nc4ccc5c(c4)CC4CNCCN54)nc23)c1` (stereo not shown) are 318 nM and 5 nM.
`CC1(C)CNCCC1Nc1cc(Nc2cccc(NS(=O)(=O)C(C)(C)C)c2)c2ccsc2c1` (stereo not shown): the IC50 in test [1] was 2830 nM; in test [2], 10000 nM.
